Consider one compound from patent US12180159B2, “Activators of the unfolded protein response” (The Board of Trustees of the University of Illinois, priority 2018, dated 2024).

The test system of assay [1] is sp-XBP1 mRNA in T47D-luciferase cells. In words: Induction of spliced XBP-1 mRNA (qRT-PCR). Particulars: 100 nM. Format: cell-based, human. As for the experimental part: ERα positive T47D-luciferase, human breast cancer cells, were maintained for the indicated times in vehicle (Ctl, Control), 100 nM BHPI or 100 nM (−)-105. At the indicated times RNA was isolated and levels of sp-XBP1 mRNA quantitated by qRT-PCR. (n=3±SEM). […] Increased sp-XBP1 mRNA is a widely used marker for unfolded protein response (UPR) activation.

Assay [2] has as its system ATP levels in TYS-Luc cells. In words: Intracellular ATP levels. The class given is cell-based, human. Particulars: 1,000 nM. The protocol:
TYS-Luc cells were maintained DMSO vehicle (Veh), 1,000 nM BHPI, 1,000 nM (−)-105 with and without 10,000 nM thapsigargin (THG) for the indicated times. ATP levels were determines using a kit and relative ATP levels were from a standard curve. […] (n=3±SEM).

The subject of assay [3] is TYS-Luc cells. As to the kind of experiment: Long-term cell culture experiment, TYS-Luc cells (MTS). Format: cell-based, human. Particulars: 2 weeks 1 μM, then 4 weeks without drug. The protocol:
To simulate the effect of several weeks of treatment of a tumor in a mouse xenograft, long-term cell culture experiments were performed. TYS-Luc cells (T47DERαY537S-Luc cells; ERαY537S is the most lethal ERα mutation seen in metastatic breast cancer) were plated at 4,000 cells/well in 96 well plates. […] After 2 weeks (medium change every 2 days) cell number was determined using MTS and a standard curve of absorbance versus cell number for TYS-Luc cells. Notes: (i) Bars denote the BHPI and (−)-105 arms of the experiment. No drug is present during regrow. […] This allows any surviving cells to regrow. After 4 weeks the cells were assayed using MTS. […] (Note: Visual inspection of the wells confirmed that there were no cells in the well treated for 2 weeks with active (−)-105.) To test whether the cells that regrew after BHPI treatment were resistant to BHPI they were re-treated for another cycle (BHPI Retreat) and shown to retain sensitivity to BHPI killing. (n=8 biological replicates±SEM.

In assay [4] the test system is MYS and MDG cells (MCF-7 with Y537S or D538G ERα). In words: MYS-luc / MDG-luc orthotopic and metastatic tumor models. Format: in vivo, mouse. The text has this: FIG. 41. […]
FIG. 43. SERK-F6-mediated eradication of MYS/MDG tumors is dependent on quantitative cell killing. a-b, MYS-luc. orthotopic tumors were established in NSG ovariectomized mice (no E2 pellet, ˜45 days to establish) and dosed daily as indicated (n=5-6). b, Treatment of MYS-luc. tumors were stopped after 21 daily doses of SERK-F6 and mice tumor burden was tracked via bioluminescence. […]

Assay [5] has as its system TDG cells (T47DERαD538G). In words: Trypan Blue exclusion cell death assay, TDG cells. The class given is cell-based, human. Particulars: dose response, 24 hours, TDG-Luc cells. An excerpt:
TRYPAN BLUE: For decades, viable cells have been measured by their ability to exclude the dye Trypan Blue. […] Dead cells, which have lost membrane integrity, take up the dye and are blue. Thus, the percentage of dead cells is the percentage of cells that are Trypan Blue positive out of the total cell population. Quantitative assessment of Trypan Blue uptake uses a cell counter from Fisher. Since the assay is instrument based, there is no observer bias in determining the percentage of Trypan Blue positive cells.
TRYPAN BLUE ASSAYS: Assays are performed on cells in 6 well plates: 300,000 cells are plated in each well of a 6 well plate in 3 ml of medium. After 24 hours, the DMSO vehicle or the indicated compound is added (in 1000th of the vol.) The cells incubated for an additional 24 hours, and then harvested in 0.25 ml of trypsin, followed after harvest by 0.75 ml of medium. The cells are spun down and resuspended in 100-200 μl of medium left that is over the cell pellet (resuspend cells by pipetting up and down a few times). Add 10 μl to 10 μl of trypan blue. Then 10 μl is inserted into the counting slide. After inserting the slide into the Fisher TC20 counting is automatic (these many cells are needed because an accurate ratio of Trypan Blue positive to Trypan Blue negative cells requires about 200 cells in the field the instrument counts).
The Trypan Blue cell death assay was used to evaluate the ability of the active enantiomer of C-105 [(−)-105] to kill ERα positive TDG-Luc cells. For all studies, 300,000 TDG-Luc cells/well in 10% FBS were plated in a 6 well plate in triplicate. 24 hours after plating, the indicated concentrations the active enantiomer of (−)-105, or BHPI (top) ICI, or OHT (Lower left) or (+)-105 (lower right) were added. After 24 hours, the cells were harvested, and the % dead cells was determined by automated Trypan Blue exclusion using the Countess II automated hemocytometer. Percentage of viable cells was calculated by doing 100−(Cell Death %). (n=3±SEM).
TDG cells were incubated for 24 hours with 75 nM of BHPI or 75 nM of each of the indicated test compounds: 4, 6 and (±)-105 (enantiomers not separated). Cell death was determined using the instrument-based Trypan Blue exclusion assay. Structures are in the Synthesis section. […] (n=3±SEM).

As for `O=C1Nc2c(C(F)(F)F)cccc2C1(c1ccc(O)cc1)c1ccc(OC(F)(F)F)cc1` (single isomer, unassigned; (-)) [(−)-105, 3-(4-hydroxyphenyl)-3-(4-(trifluoromethoxy)phenyl)-7-(trifluoromethyl)indolin-2-one], the “UPR activation, induction of sp-XBP1 mRNA” value in assay [1] is “much stronger UPR hyper-activator and inducer of sp-XBP1 than BHPI”. For the same compound, in assay [2], the “intracellular ATP levels” value is “reduces intracellular ATP levels”. Moreover, the “regrowth of cells after treatment” value in assay [3] was “no regrowth”. Besides, in assay [4] (metastatic model), the “effect on metastatic tumor burden” value was “eradicates metastatic tumor burden”. Also, the “effect on MYS / MDG tumors” value in assay [4] (mouse, in vivo) is on record as “Dramatic tumor regressions”. Also, the “killing of TDG-Luc cells” value in assay [5] is on record as “superior to BHPI”.
